Data taken from patent publication US7579371B2, “Methods of using [3.2.0] heterocyclic compounds and analogs thereof” (Nereus Pharmaceuticals, Inc., priority 2004, dated 2009).
Where “and” joins values, the source holds several entries; their conditions need not be identical. Equal values may be shown once. Read-outs that look alike come from different tables or passages of the source. Peptide text beside a SMILES is read from it. * marks the point of attachment. Cbz = O=C(OCc1ccccc1)*

Key:
NF-κB = assay: NF-κB-mediated luciferase reporter gene assay, HEK293 NF-κB/Luc cells, TNF-α stimulation; type: cell-based; conditions: Homo sapiens, HEK293, 1 hr pretreatment, 6 hours TNF-α; read-out: EC50, NF-κB-mediated luciferase activity
Experimental: The HEK293 NF-κB/luciferase reporter cell line is a derivative of the human embryonic kidney cell line (ATCC; CRL-1573) and carries a luciferase reporter gene under the regulation of 5× NF-κB binding sites. […] When performing the luciferase assay, the DMEM basal medium was replaced with phenol-red free DMEM basal medium and the G418 was omitted.
For NF-κB-mediated luciferase assays, HEK293 NF-κB/luciferase cells were seeded at 1.5×10^4 cells/well in 90 μl phenol-red free DMEM complete medium into Corning 3917 white opaque-bottom tissue culture plates. For Formulae II-2, II-4, II-5A and II-18, a 400 μM starting dilution was made in 100% DMSO and this dilution was used to generate an 8-point half log dilution series. […] For formula II-20, a 2.5 mM or 8 mM starting dilution was made in 100% DMSO and the final test concentrations ranged from 6.3 μM to 2.0 nM or 20 μM to 6.3 nM respectively. The plates were returned to the incubator for 1 hour. After 1 hr pretreatment, 10 μl of a 50 ng/ml TNF-α solution, prepared in the phenol-red free DMEM medium was added, and the plates were incubated for an additional 6 hours.
At the end of the TNF-α stimulation, 100 μl of Steady Lite HTS luciferase reagent (Packard Bioscience) was added to each well and the plates were left undisturbed for 10 min at room temperature before measuring the luciferase activity. The relative luciferase units (RLU) were measured by using a Fusion microplate fluorometer (Packard Bioscience).
NF-κB inducible luciferase activity was measured at 6 hours.

U266 = assay: Cell growth inhibition assay (resazurin, 48 h); type: cell-based; conditions: Homo sapiens, U-266, 48 h, U266, 48 h; read-out: EC50
MES-SA/Dx5 = assay: Cell growth inhibition assay (resazurin, 48 h); conditions: for EC50: MES-SA/Dx5, 48 h
Experimental: (§1) Concentrations ranging from 6.32 μM to 2 nM were tested for II-2 and II-4.
The multidrug resistant MES-SA/Dx5 tumor cell line was derived from the human uterine sarcoma MES-SA tumor cell line and expresses elevated P-Glycoprotein (P-gp), an ATP dependent efflux pump.

PC-3 = assay: Cell growth inhibition assay (resazurin, 48 h); conditions: Homo sapiens, PC-3, 48 h
HL-60/MX2 = assay: Cell growth inhibition assay (resazurin, 48 h); conditions: HL-60/MX2, 48 h
Experimental: The DNA binding agent Mitoxantrone was included as a control, as HL-60/MX2 cells are reported to be resistant to this chemotherapeutic agent (Harker W. G. et al. 1989).
as §1
HL-60/MX2 is a multidrug resistant tumor cell line derived from the human promyelocytic leukemia cell line, HL-60 and expresses reduced topoisomerase II activity. […] Mitoxantrone, the topoisomerase II targeting agent was included as a control.

[1] = molecular target: rabbit muscle 20S proteasome, trypsin-like activity (Oryctolagus cuniculus, UniProt G1SWK8); assay: Trypsin-like activity of purified rabbit 20S proteasome (Boc-LRR-AMC)
[2] = molecular target: T1, 20S proteasome chymotrypsin-like activity in PC-3 cells (Homo sapiens, UniProt P28074); assay: Chymotrypsin-like activity of 20S proteasomes in treated PC-3 cells; type: cell-based; conditions: 1 hr
T1 construct: PC-3 (ATCC, CRL-1435), the human prostate cancer cell line; host or cells: PC-3
T1 sequence (P28074 60-263): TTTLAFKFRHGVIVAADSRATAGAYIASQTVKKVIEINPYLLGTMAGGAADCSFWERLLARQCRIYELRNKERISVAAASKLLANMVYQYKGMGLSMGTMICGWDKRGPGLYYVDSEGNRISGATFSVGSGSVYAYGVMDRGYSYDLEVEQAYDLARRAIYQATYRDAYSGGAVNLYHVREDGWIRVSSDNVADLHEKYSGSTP
Experimental: PC-3 (ATCC, CRL-1435), the human prostate cancer cell line, was cultured in F12K medium supplemented with 2 mM L-glutamine, 100 units/ml penicillin, 100 μg/ml streptomycin and 10% heat inactivated fetal bovine serum at 37° C., 5% CO2 and 95% humidified air. […] DMSO was used as the vehicle control at a final concentration of 0.1%. Following 1 hr incubation of PC-3 cells with the compounds, the cells were washed 3× with ice-cold 1× Dulbecco's Phosphate-Buffered Saline (DPBS, Mediatech, Herndon, Va.). […] Cell debris was pelleted by centrifugation at 14,000 rpm for 10 min, 4° C. and supernatants (=cell lysates) were transferred to a new tube. Protein concentration was determined by the BCA protein assay kit (Pierce Biotechnology, Rockford, Ill.). […] The released coumarin (AMC) was measured fluorometrically by using λex=390 nm and λem=460 nm. The assay was performed in a microtiter plate (Corning 3904) and followed kinetically with measurements every five minutes for 2 hr. The total amount of protein used for each assay was 20 μg. The final concentration of Suc-LLVY-AMC and DMSO was 20 μM and 0.2%, respectively. Results are presented as the percent inhibition of the 20S proteasome chymotrypsin-like activity relative to the DMSO control.

NCI-H292 = assay: Cell growth inhibition assay (resazurin, 48 h); type: cell-based, human; conditions: Homo sapiens, NCI-H292, 48 h
[3] = molecular target: rabbit muscle 20S proteasome, chymotrypsin-like activity (Oryctolagus cuniculus, UniProt G1T4Q9); assay: Chymotrypsin-like activity of purified rabbit muscle 20S proteasome (suc-LLVY-AMC); type: biochemical
Experimental: This peptide substrate is specific for the chymotrypsin-like enzyme activity of the proteasome.
Omuralide was prepared as a 10 mM stock in DMSO and stored in 5 μL aliquots at −80° C. […] The assay measures the hydrolysis of Suc-LLVY-AMC into Suc-LLVY and AMC. The released coumarin (AMC) was measured fluorometrically by using λex=390 nm and λem=460 nm. The assays were performed in a microtiter plate (Corning 3904), and followed kinetically with measurements every five minutes. The instrument used was a Thermo Lab Systems Fluoroskan, with the incubation chamber set to 37° C. The assays were performed according to the manufacturer's protocol, with the following changes. The proteasome was activated as described with SDS, and held on ice prior to the assay. […] Ten microliters of each dose were added in triplicate to the assay plate, and 190 μL of the activated proteasome was added and mixed. The samples were pre-incubated in the Fluoroskan for 5 minutes at 37° C. Substrate was added and the kinetics of AMC were followed for one hour.

RAW264.7 cells [4] = conditions: Tang et al., Infect Immun 67:3055 (1999); read-out: EC50 in the LeTx assay; cited from earlier work
RAW264.7 cells [5] = assay: cells; conditions: Mus musculus, RAW264.7, read-out: viability, compound + LeTx
RPMI 8226 = assay: Cell growth inhibition assay (resazurin, 48 h); conditions: RPMI 8226
Experimental: RPMI 8226 (CCL-155), HT-29 (HTB-38), and B16-F10 (CRL-6475) cells were purchased from ATCC. RPMI 8226 cells were maintained in RPMI 1640 media supplemented with 10% (v/v) FBS, 2 mM L-glutamine, 1 mM sodium pyruvate and Penicillin/Streptomycin at 100 IU/ml and 100 μg/ml, respectively. HT-29 cells were maintained in McCoys 5A supplemented with 10% (v/v) FBS, 2 mM L-glutamine, 1 mM sodium pyruvate, 1% (v/v) non-essential amino acids, 10 mM HEPES and Penicillin/Streptomycin at 100 IU/ml and 100 μg/ml, respectively. B16-F10 cells were maintained in DMEM supplemented with 10% (v/v) FBS, 2 mM L-glutamine, 10 mM HEPES and Penicillin/Streptomycin at 100 IU/ml and 100 μg/ml, respectively.
RPMI 8226 cells were seeded at 2×10^4 cells/well in 90 μl RPMI media containing 10% (v/v) FBS or 1% (v/v) FBS into 96 well black-walled, clear-bottom tissue culture plates. […] Formulae II-16, II-17 and Formula II-18 were serially diluted in media containing 1% or 10% FBS and added in triplicate to the test wells. […] The final concentration of Formula II-18 ranged from 2 μM to 630 pM.

Stability in solution = type: physicochemical
Text: Compound VI-1B: UV (Acetonitrile/H2O) λmax 235 (sh) nm; ESMS, m/z 585.2 (M+H)^+.

Sequence of rabbit muscle 20S proteasome, trypsin-like activity (G1SWK8 1-271): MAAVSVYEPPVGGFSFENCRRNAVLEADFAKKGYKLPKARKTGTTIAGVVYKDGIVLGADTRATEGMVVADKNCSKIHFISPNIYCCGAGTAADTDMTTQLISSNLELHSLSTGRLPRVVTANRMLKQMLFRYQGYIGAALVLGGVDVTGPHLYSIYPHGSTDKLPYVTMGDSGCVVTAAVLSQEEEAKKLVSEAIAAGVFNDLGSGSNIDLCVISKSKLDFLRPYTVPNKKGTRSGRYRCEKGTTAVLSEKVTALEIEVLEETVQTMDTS
Sequence of rabbit muscle 20S proteasome, chymotrypsin-like activity (G1T4Q9 1-263): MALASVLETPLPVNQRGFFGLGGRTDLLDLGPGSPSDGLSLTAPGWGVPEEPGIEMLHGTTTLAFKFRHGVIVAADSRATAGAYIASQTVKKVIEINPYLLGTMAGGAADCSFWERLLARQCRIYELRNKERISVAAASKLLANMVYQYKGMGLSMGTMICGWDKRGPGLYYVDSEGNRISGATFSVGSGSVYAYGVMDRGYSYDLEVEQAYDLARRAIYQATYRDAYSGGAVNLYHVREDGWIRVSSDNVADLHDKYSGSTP

## C[C@@]12OC(=O)[C@]1([C@@H](O)[C@H]1CCC[C@H](Cl)[C@H]1O)NC(=O)[C@@H]2CCCl [Formula IV-3C]
NF-κB
  EC50: > 20000 nM

## CC[C@H]1C(=O)N[C@@]2([C@@H](O)C3CCCCC3)C(=O)O[C@@]12C [Formula II-3]
U266
  EC50: > 20000 nM
MES-SA/Dx5; Homo sapiens
  EC50: > 20000 nM
NF-κB
  EC50: > 20000 nM
PC-3
  EC50: > 20000 nM

## O=C1c2c(O)ccc(O)c2C(=O)c2c(NCCNCCO)ccc(NCCNCCO)c21 [Mitoxantrone]
HL-60/MX2
  EC50: 827 nM and 1340 nM and 1170 nM
HL-60/MX2; Homo sapiens, HL60/MX2, 48 h
  EC50: 1410 nM

## C[C@@]12OC(=O)[C@]1([C@@H](O)[C@H]1CCC[C@H]3O[C@@H]13)NC(=O)[C@@H]2CCCl (single isomer, unassigned) [Formula II-5A]
[1]
  EC50: 87 nM

## CC(=O)O[C@H]1C(=O)[C@@]2(C)[C@H]([C@H](OC(=O)c3ccccc3)[C@]3(O)C[C@H](OC(=O)[C@H](O)[C@@H](NC(=O)c4ccccc4)c4ccccc4)C(C)=C1C3(C)C)[C@]1(OC(C)=O)CO[C@@H]1C[C@@H]2O [Paclitaxel, reference compound]
MES-SA/Dx5
  % cytotoxicity: 78 ± 1%

## CC[C@H]1C(=O)N[C@@]2([C@@H](O)[C@@H]3C=CCCC3)C(=O)O[C@@]12C [Formula II-17]
[2]; 100 nM
  % inhibition of the chymotrypsin-like activity of 20S proteasomes in PC-3 cell lysates: 26%
[2]; PC-3, read-out: % inhibition of the chymotrypsin-like activity of 20S proteasomes in PC-3 cell lysates, 10 nM
  inhibition at 0.01 µM: 16%
[2]; PC-3, read-out: % inhibition of the chymotrypsin-like activity of 20S proteasomes in PC-3 cell lysates, 100 nM
  inhibition at 0.1 µM: 26%
[2]; PC-3, read-out: % inhibition of the chymotrypsin-like activity of 20S proteasomes in PC-3 cell lysates, 1,000 nM
  inhibition at 1 µM: 49%
[2]; PC-3, read-out: % inhibition of the chymotrypsin-like activity of 20S proteasomes in PC-3 cell lysates, 10,000 nM
  inhibition at 10 µM: 79%

## C[C@@]12OC(=O)[C@]1([C@@H](O)[C@H]1CCC[C@@H]3O[C@H]13)NC(=O)[C@@H]2CCCl [Formula II-5B]
[1]
  EC50: 762 nM and 716 nM

## C[C@@]12OC(=O)[C@]1([C@@H](O)C1CCCCC1)NC(=O)[C@@H]2CCBr [Formula II-4]
NCI-H292
  EC50: 213 nM
NCI-H292; read-out: EC50
  EC50: 192 nM
U266
  EC50: 39 nM
MES-SA/Dx5; Homo sapiens
  EC50: 178 nM
MES-SA/Dx5
  EC50: 93 nM

## C[C@@]12OC(=O)[C@]1(C(=O)C1=CC(O)CCC1)NC(=O)[C@]2(C)CCCl (some centres unmarked) [Formula II-31]
[3]
  EC50: > 20000 nM

## CC(=O)N[C@@H](CSC(=O)[C@]1([C@@H](O)C(C)C)NC(=O)[C@H](C)[C@@H]1O)C(=O)O [Lactacystin]
RAW264.7 cells [4]
  EC50: 3000 nM

## C[C@@]12OC(=O)[C@]1([C@@H](O)C1CCCCC1)NC(=O)[C@@H]2CCCl [Formula II-2]
NCI-H292
  EC50: 395 nM
NCI-H292; read-out: EC50
  EC50: 322 nM
MES-SA/Dx5; Homo sapiens
  EC50: 220 nM
MES-SA/Dx5
  EC50: 138 nM
HL-60/MX2; Homo sapiens, HL60/MX2, 48 h
  EC50: 142 nM

## CC(C)[C@H](O)[C@@]12NC(=O)[C@H](C)[C@@H]1OC2=O [Omuralide, reference compound]
[2]; 100 nM
  % inhibition of the chymotrypsin-like activity of 20S proteasomes in PC-3 cell lysates: 36%
RAW264.7 cells [5]
  viability at 1 µM: 37%

## C[C@@]12OC(=O)[C@]1([C@@H](O)[C@@H]1C=CCCC1)NC(=O)[C@@H]2CCBr [Formula II-18]
RPMI 8226
  % cytotoxicity: 94, 94%

## C[C@]1(O)[C@@H](CCCl)C(=O)N[C@]1(C(=O)SCC(NC(=O)CCC(N)C(=O)O)C(=O)NCC(=O)O)[C@@H](O)[C@@H]1C=CCCC1 (some centres unmarked) [Formula II-48]
Stability in solution
  stability in solution: unstable in solution

## CC(C)C[C@@H](C=O)NC(=O)[C@H](CC(C)C)NC(=O)[C@H](CC(C)C)NC(=O)OCc1ccccc1 [MG132] (Cbz-Leu-Leu-Leu-aldehyde)
RAW264.7 cells [4]
  EC50: 3000 nM
